Reference: US20240228468A1, “N-(6-((OCTAHYDROCYCLOPENTA[C]PYRROL-5-YI)AMINO)PYRIDAZIN-3-YL)PHENYL)CARBOXAMIDE AND (6- ((OCTAHYDROCYCLOPENTA[C]PYRROL-5-YL)AMINO)PYRIDAZIN-3-YL)BENZAMIDE DERIVATIVES AS MACHR M4 ANTAGONISTS FOR THE TREATMENT OF NEURODEGENERATIVE DISORDERS” (Vanderbilt University, priority 2021, published 2024)
Read-outs that look alike come from different tables or passages of the source.

Target: T1, Human M4 (Homo sapiens, UniProt P08173)
T1 construct: expressed in transfected cells; host or cells: CHO-K1 (ATCC), co-transfected with chimeric G protein Gqi5
T1 sequence (P08173 1-479): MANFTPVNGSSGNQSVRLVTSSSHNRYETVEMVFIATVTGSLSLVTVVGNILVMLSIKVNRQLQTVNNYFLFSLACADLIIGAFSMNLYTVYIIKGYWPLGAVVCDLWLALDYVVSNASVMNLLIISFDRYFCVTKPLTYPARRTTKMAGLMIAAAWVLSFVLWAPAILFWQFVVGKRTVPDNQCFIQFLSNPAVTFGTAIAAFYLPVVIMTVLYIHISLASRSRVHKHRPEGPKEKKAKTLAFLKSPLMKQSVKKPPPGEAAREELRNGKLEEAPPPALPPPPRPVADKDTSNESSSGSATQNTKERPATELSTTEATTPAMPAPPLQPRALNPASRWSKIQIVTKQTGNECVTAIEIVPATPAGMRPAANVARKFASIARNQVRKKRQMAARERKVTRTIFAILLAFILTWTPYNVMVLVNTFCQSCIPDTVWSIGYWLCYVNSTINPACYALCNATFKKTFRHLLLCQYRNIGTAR
Test: mAChR M4 cell-based functional assay (calcium flux, antagonism of EC80 acetylcholine response)
Conditions: for IC50: concentration-dependent decrease of the response elicited by an EC80 concentration of acetylcholine
Experimental: Human or rat M4 cDNA, along with the chimeric G protein Gqi5, were transfected into Chinese hamster ovary (CHO-K1) cells purchased from the American Type Culture Collection using Lipofectamine2000. M4/Gqi5/CHO cells were grown in Ham's F-12 medium containing 10% heat-inactivated fetal bovine serum (FBS), 20 mM HEPES, 500 μg/mL G418 sulfate, and 200 μg/mL Hygromycin B.
For high throughput measurement of agonist-evoked increases in intracellular calcium, CHO-K1 cells stably expressing muscarinic receptors were plated in growth medium lacking G418 and hygromycin at 15,000 cells/20 μL/well in Greiner 384-well black-walled, tissue culture (TC)-treated, clear-bottom plates (VWR). Cells were incubated overnight at 37° C. and 5% CO2. The next day, cells were washed using an ELX 405 (BioTek) with assay buffer; the final volume was then aspirated to 20 μL. Next, 20 μL of a 2.3 μM stock of Fluo-4/acetoxymethyl ester (Invitrogen, Carlsbad, CA), prepared as a 2.3 mM stock in DMSO and mixed in a 1:1 ratio with 10% (w/v) Pluronic F-127 and diluted in assay buffer, was added to the wells and the cell plates were incubated for 50 min at 37° C. and 5% CO2. Dye was removed by washing with the ELX 405 and the final volume was aspirated to 20 μL. Compound master plates were formatted in a 10 point concentration-response curve (CRC) format (1:3 dilutions) in 100% DMSO with a starting concentration of 10 or 1 mM using a BRAVO liquid handler (Agilent). Test compound CRCs were then transferred to daughter plates (240 nL) using the Echo acoustic plate reformatter (Labcyte, Sunnyvale, CA) and then diluted into assay buffer (40 μL) to a 2× stock using a Thermo Fisher Combi (Thermo Fisher Scientific, Waltham, MA).
Calcium flux was measured using the Functional Drug Screening System (FDSS) 6000 or 7000 (Hamamatsu Corporation, Tokyo, Japan) as an increase in the fluorescent static ratio. Compounds were applied to cells (20 μL, 2×) using the automated system of the FDSS at 2 seconds into the protocol and the data were collected at 1 Hz. At 143 s, 10 μL of an EC20 concentration of the muscarinic receptor agonist acetylcholine was added (5×), followed by the addition of 12 μL of an EC80 concentration of acetylcholine at the 268 s time point (5×). Agonist activity was analyzed as a concentration-dependent increase in calcium mobilization upon compound addition. Positive allosteric modulator activity was analyzed as a concentration-dependent increase in the EC20 acetylcholine response. Antagonist activity was analyzed as a concentration-dependent decrease in the EC80 acetylcholine response; for the purposes of the tables herein, an IC50 (inhibitory concentration 50) was calculated as a concentration-dependent decrease of the response elicited by an EC80 concentration of acetylcholine. Concentration-response curves were generated using a four-parameter logistical equation in XLFit curve fitting software (IDBS, Bridgewater, NJ) for Excel (Microsoft, Redmond, WA) or Prism (GraphPad Software, Inc., San Diego, CA) or the Dotmatics software platform (Dotmatics, Bishop's Stortford, UK).
Compounds were synthesized as described above. Activity (IC50 and Emin) was determined in the mAChR M4 cell-based functional assay as described above and the data are shown in Table 2.

[1] = M4/Gqi5/CHO-K1 cells, % ACh maximum at 30 μM, read-out: Human M4 Emin (% ACh maximum at 30 μM)
[2] = M4/Gqi5/CHO-K1 cells, % ACh maximum at 30 μM

In the case of `O=C(c1cc(F)c(F)c(-c2ccc(N[C@H]3C[C@@H]4CN(CC5CCOCC5)C[C@@H]4C3)nn2)c1)N1CCOCC1` [Compound A10, (3,4-difluoro-5-(6-(((3aR,5s,6aS)-2-((tetrahydro-2H-pyran-4-yl)methyl)octahydrocyclopenta[c]pyrrol-5-yl)amino)pyridazin-3-yl)phenyl)(morpholino)methanone], the remaining activity at 30 µM [1] is reported as 3% and the IC50 (M4/Gqi5/CHO-K1 cells) is reported as 82 nM.
In the case of `O=C(c1ccc(-c2ccc(N[C@H]3C[C@@H]4CN(CC5CCOCC5)C[C@@H]4C3)nn2)cc1)N1CCCCC1` [Compound A22, piperidin-1-yl(4-(6-(((3aR,5s,6aS)-2-((tetrahydro-2H-pyran-4-yl)methyl)octahydrocyclopenta[c]pyrrol-5-yl)amino)pyridazin-3-yl)phenyl)methanone], the remaining activity at 30 µM [1] is reported as 4% and the IC50 (M4/Gqi5/CHO-K1 cells) is reported as 21 nM.
`CCC(=O)Nc1ccccc1-c1ccc(N[C@H]2C[C@@H]3CN(CC4CCOCC4)C[C@@H]3C2)nn1` [Compound A44, N-(2-(6-(((3aR,5s,6aS)-2-((tetrahydro-2H-pyran-4-yl)methyl)octahydrocyclopenta[c]pyrrol-5-yl)amino)pyridazin-3-yl)phenyl)propionamide] showed a remaining activity at 30 µM [1] of 4% and an IC50 (M4/Gqi5/CHO-K1 cells) of 67 nM.
With `CN(C)C(=O)c1cc(F)c(F)c(-c2ccc(N[C@H]3C[C@@H]4CN(CC5CCOCC5)C[C@@H]4C3)nn2)c1` [Compound A9, 3,4-difluoro-N,N-dimethyl-5-(6-(((3aR,5s,6aS)-2-((tetrahydro-2H-pyran-4-yl)methyl)octahydrocyclopenta[c]pyrrol-5-yl)amino)pyridazin-3-yl)benzamide] the remaining activity at 30 µM [1] was 5% and the IC50 (M4/Gqi5/CHO-K1 cells) was 440 nM.
Compound `[2H]C([2H])(C1CCOCC1)N1C[C@H]2C[C@H](Nc3ccc(-c4ccc(C(=O)NC5CC5)cc4)nn3)C[C@H]2C1` [Compound A34, N-cyclopropyl-4-(6-(((3aR,5s,6aS)-2-((tetrahydro-2H-pyran-4-yl)methyl-d2)octahydrocyclopenta[c]pyrrol-5-yl)amino)pyridazin-3-yl)benzamide] has a remaining activity at 30 µM [1] of 4% and an IC50 (M4/Gqi5/CHO-K1 cells) of 1.1 nM.
For “N-methyl-3-(6-(((3aR,5s,6aS)-2-(((S)- tetrahydro-2H-pyran-2-yl)methyl- d2)octahydrocyclopenta[c]pyrrol-5- yl)amino)pyridazin-3-yl)benzamide [Compound A80]”, the “Human M4 Emin (% ACh maximum at 30 μM)” value [2] was 4% and the IC50 (M4/Gqi5/CHO-K1 cells) was 1.4 nM.
For `[2H]C([2H])([2H])C(=O)Nc1ccccc1-c1ccc(N[C@H]2C[C@@H]3CN(C([2H])([2H])C4CCOCC4)C[C@@H]3C2)nn1` [Compound B4, N-(2-(6-(((3aR,5s,6aS)-2-((tetrahydro-2H-pyran-4-yl)methyl-d2)octahydrocyclopenta [c]pyrrol-5-yl)amino)pyridazin-3-yl)phenyl) acetamide-2,2,2-d3], the “Human M4 Emin (% ACh maximum at 30 μM)” value [2] was 4% and the IC50 (M4/Gqi5/CHO-K1 cells) was 120 nM.
`[2H]C([2H])([2H])C(=O)Nc1cccc(-c2ccc(N[C@H]3C[C@@H]4CN(CC5CCOCC5)C[C@@H]4C3)nn2)c1` [Compound A61, N-(3-(6-(((3aR,5s,6aS)-2-((tetrahydro-2H-pyran-4-yl)methyl)octahydrocyclopenta[c]pyrrol-5-yl)amino)pyridazin-3-yl)phenyl)acetamide-2,2,2-d3] showed a remaining activity at 30 µM [1] of 3% and an IC50 (M4/Gqi5/CHO-K1 cells) of 12 nM.
In the case of `[2H]C([2H])(C1CCOCC1)N1C[C@H]2C[C@H](Nc3ccc(-c4cccc(C(=O)NC(C)C)c4)nn3)C[C@H]2C1` [Compound A72, N-isopropyl-3-(6-(((3aR,5s,6aS)-2-((tetrahydro-2H-pyran-4-yl)methyl-d2)octahydrocyclopenta[c]pyrrol-5-yl)amino)pyridazin-3-yl)benzamide], the remaining activity at 30 µM [1] is reported as 5% and the IC50 (M4/Gqi5/CHO-K1 cells) is reported as 28 nM.
`[2H]C([2H])(C1CCOCC1)N1C[C@H]2C[C@H](Nc3ccc(-c4cccc(NC(=O)C5CC5)c4)nn3)C[C@H]2C1` [Compound A32, N-(3-(6-(((3aR,5s,6aS)-2-((tetrahydro-2H-pyran-4-yl)methyl-d2)octahydrocyclopenta[c]pyrrol-5-yl)amino)pyridazin-3-yl)phenyl)cyclopropanecarboxamide] was tested, and the remaining activity at 30 µM [1] was 3% and the IC50 (M4/Gqi5/CHO-K1 cells) was 16 nM.
Compound `N#CCC(=O)Nc1cc(F)c(F)c(-c2ccc(N[C@H]3C[C@@H]4CN(CC5CCOCC5)C[C@@H]4C3)nn2)c1` [Compound A16, 2-cyano-N-(3,4-difluoro-5-(6-(((3aR,5s,6aS)-2-((tetrahydro-2H-pyran-4-yl)methyl)octahydrocyclopenta[c]pyrrol-5-yl)amino)pyridazin-3-yl)phenyl)acetamide] has a remaining activity at 30 µM [1] of 4% and an IC50 (M4/Gqi5/CHO-K1 cells) of 47 nM.
`[2H]C([2H])([C@@H]1CCCOC1)N1C[C@H]2C[C@H](Nc3ccc(-c4cc(F)cc(C(=O)NC)c4)nn3)C[C@H]2C1` [Compound A85, 3-fluoro-N-methyl-5-(6-(((3aR,5s,6aS)-2-(((S)-tetrahydro-2H-pyran-3-yl)methyl-d2)octahydrocyclopenta[c]pyrrol-5-yl)amino)pyridazin-3-yl)benzamide] was tested, and the remaining activity at 30 µM [1] was 5% and the IC50 (M4/Gqi5/CHO-K1 cells) was 84 nM.
In the case of `[2H]C([2H])(C1CCOCC1)N1C[C@H]2C[C@H](Nc3ccc(-c4cc(F)cc(C(=O)NC)c4)nn3)C[C@H]2C1` [Compound A71, 3-Fluoro-N-methyl-5-(6-(((3aR,5s,6aS)-2-((tetrahydro-2H-pyran-4-yl)methyl-d2)octahydrocyclopenta[c]pyrrol-5-yl)amino)pyridazin-3-yl)benzamide], the remaining activity at 30 µM [1] is reported as 4% and the IC50 (M4/Gqi5/CHO-K1 cells) is reported as 14 nM.
Work on `CC(=O)Nc1ccc(-c2ccc(N[C@H]3C[C@@H]4CN(Cc5ccccc5F)C[C@@H]4C3)nn2)cc1` [Compound A1, N-(4-(6-(((3aR,5s,6aS)-2-(2-fluorobenzyl)octahydrocyclopenta[c]pyrrol-5-yl)amino)pyridazin-3-yl)phenyl)acetamide] yielded a remaining activity at 30 µM [1] of 4% and an IC50 (M4/Gqi5/CHO-K1 cells) of 62 nM.
`[2H]C([2H])(C1CCOCC1)N1C[C@H]2C[C@H](Nc3ccc(-c4cccc(C(=O)NC)c4)nn3)C[C@H]2C1` (single isomer, unassigned) [Compound A42] gave a remaining activity at 30 µM (CHO-K1, read-out: Human M4 Emin (% ACh maximum at 30 μM)) of 14% and an IC50 (M4/Gqi5/CHO-K1 cells) of 400 nM.
`[2H]C([2H])([2H])NC(=O)c1ccc(-c2ccc(N[C@H]3C[C@@H]4CN(CC5CCOCC5)C[C@@H]4C3)nn2)cc1` (single isomer, unassigned) [Compound A54] was tested, and the remaining activity at 30 µM [1] was 3% and the IC50 (M4/Gqi5/CHO-K1 cells) was 9.9 nM.
For `[2H]C([2H])(C1CCOC(C)(C)C1)N1C[C@H]2C[C@H](Nc3ccc(-c4cc(F)cc(C(=O)NC)c4)nn3)C[C@H]2C1` (stereo partly drawn) [Compound A83, 3-(6-(((3aR,5s,6aS)-2-((2,2-dimethyltetrahydro-2H-pyran-4-yl)methyl-d2)octahydrocyclopenta[c]pyrrol-5-yl)amino)pyridazin-3-yl)-5-fluoro-N-methylbenzamide], the remaining activity at 30 µM [1] was 4% and the IC50 (M4/Gqi5/CHO-K1 cells) was 2.7 nM.
